Assay results taken from patent US8153821B2, “Compounds” (priority 2008, dated 2012).

Experiments:
[1] = Dynamic vapor sorption (DVS); type: physicochemical; conditions: 25° C.
Protocol: Sorption isotherms were determined using a SMS DVS Intrinsic moisture sorption analyzer controlled by SMS Analysis suite software. The sample temperature was maintained at 25° C. by the instrument controls. The humidity was controlled by mixing streams of dry and wet nitrogen, with a total flow rate of 200 mL/min. The relative humidity was measured by a calibrated Rotronic probe (dynamic range of 1.0-100% RH), located near the sample. The weight change, (mass relaxation) of the sample as a function of % RH was constantly monitored by the microbalance (accuracy ±0.005 mg).
Typically a 5-20 mg sample was placed on the tared mesh stainless steel basket under ambient conditions. The sample was loaded and unloaded at 40% RH and 25° C. (typical ambient conditions). A moisture sorption isotherm was performed as outlined below (2 scans giving 1 complete cycle). The standard isotherm was performed at 25° C. at 10% RH intervals over a 0-90% RH range.

SMILES	melting point [°C]	DVS water uptake [1]
C(=C\[C@H]1CCNC1)/c1cncc(OC2CCOCC2)c1.O=C(O)C(=O)O	180 to 181	–
C(=C\[C@H]1CCNC1)/c1cncc(OC2CCOCC2)c1.O=C(O)C[C@H](O)C(=O)O [(R)-3-((E)-2-(pyrrolidin-3-yl)vinyl)-5-(tetrahydropyran-4-yloxy)pyridine mono-L-malate]	–	minimum water uptake up to 80% R.H.
